Measurements as given in patent publication US20060069132A1, “Azolecarboxamide herbicides” (priority 2004, published 2006).

Assays:
Surinam grass = assay: Test B pre-/postemergence herbicide test; format: in vivo, Urochloa decumbens; settings: for Plant response rating (0 to 100 scale), Surinam Grass: 0 is no effect, 100 is complete control, preemergence; for Surinam Grass plant response rating: scale 0 (no effect) to 100 (complete control)
Procedure, shortened: (§1)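 Formulation: non-phytotoxic solvent mix with surfactant. Timing: preemergence on seed and postemergence on 2–18 cm plants, applied concurrently. Readout after 13–15 d greenhouse: visual 0–100 control rating against controls.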

ducksalad = assay: Test B flooded paddy test; format: in vivo, Heteranthera limosa; settings: 1000 g ai/ha, scale 0 to 100 (0 no effect, 100 complete control)
Procedure, shortened: (§2)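 Visual control ratings, 0–100 versus untreated controls, taken after 13 to 15 days in the greenhouse. Blackgrass received a postemergence spray at the 1- to 4-leaf stage (2–18 cm); ducksalad, umbrella sedge and barnyardgrass were flooded-paddy treated at 2 leaves.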

barnyardgrass [1] = assay: Test B flooded paddy test; format: in vivo, Echinochloa crus-galli; settings: 1000 g ai/ha, scale 0 to 100 (0 no effect, 100 complete control)
Procedure, shortened: as §2

wheat = assay: Test B postemergence herbicide test; format: in vivo, Triticum aestivum; design: key to Wheat plant response rating: 0 = no effect, 100 = complete control
Procedure, shortened: (§3)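 Visual ratings, 0 (no effect) to 100 (complete control), made versus controls after 13–15 d greenhouse. Paddy plants treated at 2-leaf stage; postemergence plants at 1- to 4-leaf stage, 2–18 cm tall.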

morningglory = assay: Test B pre-/postemergence herbicide test; format: in vivo, Ipomoea coccinea; settings: for Plant response rating (0 to 100 scale), Morningglory: 0 is no effect, 100 is complete control, preemergence; for Morningglory plant response rating: scale 0 (no effect) to 100 (complete control)
Procedure, shortened: (§4)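 Response was scored visually 13 to 15 days after treatment against untreated greenhouse controls, 0 meaning no effect and 100 complete control. Formulations (solvent mixture plus surfactant) went onto soil after planting, onto foliage of 1- to 4-leaf plants, and onto 2-leaf plants in a flooded paddy set including rice and barnyardgrass.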

barnyardgrass [2] = assay: Test B pre-/postemergence herbicide test; format: in vivo, Echinochloa crus-galli; settings: for Plant response rating (0 to 100 scale), Barnyardgrass: 0 is no effect, preemergence; for Barnyardgrass plant response rating: postemergence
Procedure, shortened: as §4

corn = assay: Test B pre-/postemergence herbicide test; format: in vivo, Zea mays; settings: for Plant response rating (0 to 100 scale), Corn: 0 is no effect, preemergence; for Corn plant response rating: postemergence
Procedure, shortened: as §1

wild oat = assay: Test B postemergence herbicide test; format: in vivo, Avena fatua; settings: scale 0 (no effect) to 100 (complete control)
Procedure, shortened: as §3

giant foxtail = assay: Test B pre-/postemergence herbicide test; format: in vivo, Setaria faberi; settings: for Plant response rating (0 to 100 scale), Foxtail, Giant: 0 is no effect, preemergence; for Foxtail, Giant plant response rating: postemergence
Procedure, shortened: as §1

rice = assay: Test B flooded paddy test; format: in vivo, Oryza sativa; settings: 1000 g ai/ha, scale 0 to 100 (0 no effect, 100 complete control)
Procedure, shortened: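 Scale 0–100: zero equals no visible effect, 100 complete control, judged by eye relative to controls. Timing: 13 to 15 days in greenhouse post-treatment. Growth stage at spraying: two leaves (paddy) or one to four leaves, 2–18 cm (postemergence).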

blackgrass = assay: Test B postemergence herbicide test; format: in vivo, Alopecurus myosuroides; settings: postemergence
Procedure, shortened: as §2

large crabgrass = assay: Test B pre-/postemergence herbicide test; format: in vivo, Digitaria sanguinalis; settings: for Plant response rating (0 to 100 scale), Crabgrass, Large: 0 is no effect, preemergence; for Crabgrass, Large plant response rating: postemergence
Procedure, shortened: as §1

pigweed = assay: Test B pre-/postemergence herbicide test; format: in vivo, Amaranthus retroflexus; settings: for Plant response rating (0 to 100 scale), Pigweed: 0 is no effect, 100 is complete control, preemergence; for Pigweed plant response rating: scale 0 (no effect) to 100 (complete control)
Procedure, shortened: as §1

cocklebur = assay: Test B pre-/postemergence herbicide test; format: in vivo, Xanthium strumarium; settings: for Plant response rating (0 to 100 scale), Cocklebur: 0 is no effect, preemergence; for Cocklebur plant response rating: postemergence
Procedure, shortened: as §4

lambsquarters = assay: Test B pre-/postemergence herbicide test; format: in vivo, Chenopodium album; settings: for Plant response rating (0 to 100 scale), Lambsquarters: 0 is no effect, 100 is complete control, preemergence; for Lambsquarters plant response rating: scale 0 (no effect) to 100 (complete control)
Procedure, shortened: as §1

[3] = tested on: small flower umbrella sedge; assay: Test B flooded paddy test; format: in vivo, Cyperus difformis; settings: 1000 g ai/ha, scale 0 to 100 (0 no effect, 100 complete control)
Procedure, shortened: as §2

velvetleaf = assay: Test B pre-/postemergence herbicide test; format: in vivo, Abutilon theophrasti; settings: for Plant response rating (0 to 100 scale), Velvetleaf: 0 is no effect, 100 is complete control, preemergence; for Velvetleaf plant response rating: scale 0 (no effect) to 100 (complete control)
Procedure, shortened: as §1

[4] = 125 g ai/ha, visual rating, postemergence
[5] = 125 g ai/ha, visual rating, scale 0 (no effect) to 100 (complete control), postemergence
[6] = 500 g ai/ha, scale 0 to 100, 0 no effect, 100 complete control, preemergence
[7] = Postemergence, 500 g ai/ha, scale 0 (no effect) to 100 (complete control)
[8] = 125 g ai/ha, 100 is complete control
[9] = 125 g ai/ha, visual rating, scale 0 (no effect) to 100 (complete control)
[10] = 500 g ai/ha, scale 0 to 100, 0 is no effect, 100 is complete control

CCc1nn(C(C)(C)C)nc1C(=O)Nc1cc(C(=O)N2CCCCC2)ccc1F [Compound 381]
30: Blackgrass plant response rating (blackgrass; [10]) | Pigweed plant response rating (pigweed; Postemergence, 500 g ai/ha)
80: Morningglory plant response rating (morningglory; Postemergence, 500 g ai/ha) | Lambsquarters plant response rating (lambsquarters; Postemergence, 500 g ai/ha)
70: Ducksalad plant response rating (ducksalad) | Plant response rating (0 to 100 scale), Crabgrass, Large (large crabgrass; [8]) | Lambsquarters plant response rating (lambsquarters; [4]) | Sedge, Umbrella plant response rating [3]
20: Plant response rating (0 to 100 scale), Surinam Grass (Surinam grass; 125 g ai/ha) | Wheat plant response rating (wheat; [6]) | Wheat plant response rating (wheat; [7]) | Morningglory plant response rating (morningglory; [4]) | Oat, Wild plant response rating (wild oat; Postemergence, 500 g ai/ha) | Foxtail, Giant plant response rating (giant foxtail; [10]) | Blackgrass plant response rating (blackgrass; [9]) | Crabgrass, Large plant response rating (large crabgrass; [10]) | Pigweed plant response rating (pigweed; [4]) | Cocklebur plant response rating (cocklebur; [9]) | Cocklebur plant response rating (cocklebur; [10])
60: Rice plant response rating (rice)
40: Surinam Grass plant response rating (Surinam grass; Postemergence, 500 g ai/ha) | Plant response rating (0 to 100 scale), Lambsquarters (lambsquarters; 125 g ai/ha) | Velvetleaf plant response rating (velvetleaf; Postemergence, 500 g ai/ha)
10: Surinam Grass plant response rating (Surinam grass; [4]) | Barnyardgrass plant response rating (barnyardgrass [1]) | Wheat plant response rating (wheat; [5]) | Plant response rating (0 to 100 scale), Barnyardgrass (barnyardgrass [2]; [8]) | Corn plant response rating (corn; [10]) | Oat, Wild plant response rating (wild oat; [4]) | Plant response rating (0 to 100 scale), Foxtail, Giant (giant foxtail; [8]) | Foxtail, Giant plant response rating (giant foxtail; [9]) | Crabgrass, Large plant response rating (large crabgrass; [9]) | Plant response rating (0 to 100 scale), Velvetleaf (velvetleaf; 125 g ai/ha) | Velvetleaf plant response rating (velvetleaf; [4])
0: Plant response rating (0 to 100 scale), Morningglory (morningglory; 125 g ai/ha) | Barnyardgrass plant response rating (barnyardgrass [2]; [9]) | Barnyardgrass plant response rating (barnyardgrass [2]; [10]) | Plant response rating (0 to 100 scale), Corn (corn; [8]) | Corn plant response rating (corn; [9]) | Plant response rating (0 to 100 scale), Pigweed (pigweed; 125 g ai/ha) | Plant response rating (0 to 100 scale), Cocklebur (cocklebur; [8])

C=CCN(CC=C)C(=O)c1ccc(F)c(NC(=O)c2nn(C(C)(C)C)nc2CC)c1 [Compound 387]
0: Plant response rating (0 to 100 scale), Surinam Grass (Surinam grass; 125 g ai/ha) | Surinam Grass plant response rating (Surinam grass; [4]) | Surinam Grass plant response rating (Surinam grass; Postemergence, 500 g ai/ha) | Ducksalad plant response rating (ducksalad) | Barnyardgrass plant response rating (barnyardgrass [1]) | Wheat plant response rating (wheat; [5]) | Wheat plant response rating (wheat; [6]) | Plant response rating (0 to 100 scale), Morningglory (morningglory; 125 g ai/ha) | Morningglory plant response rating (morningglory; [4]) | Plant response rating (0 to 100 scale), Barnyardgrass (barnyardgrass [2]; [8]) | Barnyardgrass plant response rating (barnyardgrass [2]; [9]) | Barnyardgrass plant response rating (barnyardgrass [2]; [10]) | Plant response rating (0 to 100 scale), Corn (corn; [8]) | Corn plant response rating (corn; [9]) | Corn plant response rating (corn; [10]) | Oat, Wild plant response rating (wild oat; [4]) | Plant response rating (0 to 100 scale), Foxtail, Giant (giant foxtail; [8]) | Foxtail, Giant plant response rating (giant foxtail; [9]) | Rice plant response rating (rice) | Blackgrass plant response rating (blackgrass; [9]) | Plant response rating (0 to 100 scale), Crabgrass, Large (large crabgrass; [8]) | Crabgrass, Large plant response rating (large crabgrass; [9]) | Crabgrass, Large plant response rating (large crabgrass; [10]) | Plant response rating (0 to 100 scale), Pigweed (pigweed; 125 g ai/ha) | Plant response rating (0 to 100 scale), Cocklebur (cocklebur; [8]) | Cocklebur plant response rating (cocklebur; [9]) | Plant response rating (0 to 100 scale), Lambsquarters (lambsquarters; 125 g ai/ha) | Sedge, Umbrella plant response rating [3] | Plant response rating (0 to 100 scale), Velvetleaf (velvetleaf; 125 g ai/ha) | Velvetleaf plant response rating (velvetleaf; [4])
20: Foxtail, Giant plant response rating (giant foxtail; [10]) | Blackgrass plant response rating (blackgrass; [10]) | Pigweed plant response rating (pigweed; [4]) | Cocklebur plant response rating (cocklebur; [10]) | Lambsquarters plant response rating (lambsquarters; [4]) | Lambsquarters plant response rating (lambsquarters; Postemergence, 500 g ai/ha)
40: Pigweed plant response rating (pigweed; Postemergence, 500 g ai/ha)
30: Oat, Wild plant response rating (wild oat; Postemergence, 500 g ai/ha)
10: Wheat plant response rating (wheat; [7]) | Morningglory plant response rating (morningglory; Postemergence, 500 g ai/ha) | Velvetleaf plant response rating (velvetleaf; Postemergence, 500 g ai/ha)
